Results reported in patent US9067966B2, “Lupeol-type triterpene derivatives as antivirals” (priority 2009, dated 2015).

Tests used:
Format in all cases: cell-based
HIV-1 strain NL4-3 [1] = test: Anti-HIV-1 luciferase indicator assay in MT2 cells, NL4-3; details: viral strain NL4-3
Protocol: (§1) Compound was dissolved in DMSO to make 30 mM stock. Then the 30 mM stock is further diluted to 4 mM using DMSO. The 4 mM stock was used as the top concentration to carry out an 11-point, 3-fold dilution scheme using DMSO in a 96-well plate to make the compound dose plate. Compounds in the dose plate were transferred to a new 96-well plate (working plate) containing PBS with 0.05% pluronic acid. From this working plate, the compound solution was transferred to the 384-well assay plates.
(§2) Control compounds used in compound control wells were prepared and added to assay plates individually.
(§3) MT2 cells were mixed with HIV-1 strain NL4-3 (or IIIB, or CNHN24) and the cell/virus mixture was added to the aforementioned antivirus assay plates. After incubation in a 37° C., 5% CO2 incubator, the supernatant from the assay plate was transferred to a new 384-well plate containing the indicator cells with a fire fly luciferase gene under HIV-1 LTR control. The expression level of luciferase was related to HIV-1 infectivity and was measured by Bright-Glo kit (Promega).
(§4) Therapeutic index (TI) was determined by taking ratio of CC50/IC50

HIV-1 strain IIIB [2] = test: Anti-HIV-1 luciferase indicator assay in MT2 cells, IIIB; details: viral strain II B
Protocol: as §1, §2, §3, §4

HIV-1 strain NL4-3 [3] = test: Anti-HIV-1 luciferase indicator assay in PBMC cells, NL4-3; details: Human immunodeficiency virus 1, NL43, viral strain NL4-3
Protocol: as §1, with “stock was” for “stock is”, “working plate” for “working plate,”
(§5) Control compounds for cpd control wells were prepared and added to assay plates individually.
(§6) PBMC cells were isolated from human whole blood using Histopaque-1077 (Sigma, #10771) and frozen down and kept in liquid nitrogen tank. Two days before the assay PBMC was recovered and cultured in medium containing PHA-P (Sigma, #L1668). On the day of assay PBMC cells were pelleted down and resuspended in medium containing IL-2 (Sigma, #I7908), then the cells were mixed with HIV-1 strain NL4-3, MOI=0.01 (or IIIB, or CNHN24) and the cell/virus mixture was added to the aforementioned antivirus assay plates. […] The expression level of luciferase was related to HIV-1 infectivity and was measured by Bright-Glo kit (Promega).

HIV-1 strain CNHN24 [4] = test: Anti-HIV-1 luciferase indicator assay in MT2 cells, CNHN24; details: viral strain CNHN24
Protocol: as §1, §2, §3, §4

HIV-1 strain IIIB [5] = test: Anti-HIV-1 luciferase indicator assay in PBMC cells, IIIB; details: Human immunodeficiency virus 1, IIIB, viral strain II B
Protocol: as §1, with “stock was” for “stock is”, “working plate” for “working plate,”
as §5, §6

in vitro [6] = details: human
Protocol: as §1, with “stock was” for “stock is”, “working plate” for “working plate,”
For the cytotoxicity assay, the same amount of PBMC cells as in the antivirus assay but without the HIV-1 virus, was added to the cytotoxicity plates. The cytotoxicity was measured by a CellTiter-Glo cell viability assay (Promega).

in vitro [7] = details: human, CC50
Protocol: as §1
For cytotoxicity assay the same amount of MT2 cells as in antivirus assay but without HIV-1 virus were added to the cytotoxicity plates. The cytotoxicity was measured by Cell Titer-Glo cell viability assay (Promega).

HIV-1 strain CNHN24 [8] = test: Anti-HIV-1 luciferase indicator assay in PBMC cells, CNHN24; details: Human immunodeficiency virus 1, viral strain CNHN24
Protocol: as §1, with “stock was” for “stock is”, “working plate” for “working plate,”
as §5, §6

With `C=C(C)[C@@H]1CC[C@]2(C(=O)N[C@@H]3C[C@H](C(=O)N4CCCC4)C3(C)C)CC[C@]3(C)[C@H](CC[C@@H]4[C@@]5(C)CC[C@H](OC(=O)CC(C)(C)C(=O)O)C(C)(C)[C@@H]5CC[C@]43C)[C@@H]12` [Example 45] the IC50 (HIV-1 strain NL4-3 [1]; Human immunodeficiency virus 1, NL43, MT2, MT2 cells, read-out: IC50) was 17 nM, the “TI / Safety Index (CC50/IC50)” value (HIV-1 strain NL4-3 [1]; MT2 cells) was 1177 and the IC50 (HIV-1 strain IIIB [2]; Human immunodeficiency virus 1, IIIB, MT2, MT2 cells, read-out: IC50) was 25 nM. For the same compound, the “TI / Safety Index (CC50/IC50)” value (HIV-1 strain IIIB [2]; MT2 cells) was 800, the IC50 (HIV-1 strain NL4-3 [3]) was 17 nM and the IC50 (HIV-1 strain CNHN24 [4]; Human immunodeficiency virus 1, MT2, MT2 cells, read-out: IC50) was 22 nM. The “TI / Safety Index (CC50/IC50)” value (HIV-1 strain CNHN24 [4]; MT2 cells) was 800, the IC50 (HIV-1 strain IIIB [5]) was 25 nM and the CC50 (in vitro [6]) was over 20000 nM. It also gave a CC50 (in vitro [7]) of 20000 nM and an IC50 (HIV-1 strain CNHN24 [8]) of 22 nM.
